From patent US7923450B2, “Modulators for amyloid beta” (Hoffmann-La Roche Inc., priority 2008, dated 2011)

How the values were obtained:
γ-secretase = test: Cellular γ-secretase assay (Aβ42 secretion); assay type: cell-based; conditions: inhibition of Aβ42 secretion; human neuroglioma H4 cells overexpressing human APP; 22 hrs incubation; read-out: EC50 in vitro
Experimental: Cellular γ-Secretase Assay
Human neuroglioma H4 cells overexpressing human APP were plated at 30,000 cells/well/200 μl in 96-well plates in IMDM media containing 10% FCS, 0.2 mg/l Hygromycin B and incubated for 2 h at 37° C., 5% CO2 prior to adding test compounds.
Compounds for testing were dissolved in 100% Me2SO yielding in a 10 mM stock solution. Typically 12 μl of these solutions were further diluted in 1000 μl of IMDM media (w/o FCS,). Sub sequential 1:1 dilutions gave a ten point dose response curve. 100 μl of each dilution was added to the cells in 96-well plates. Appropriate controls using vehicle only and reference compound were applied to this assay. The final concentration of Me2SO was 0.4%.
After incubation for 22 hrs at 37° C., 5% CO2, 50 μl supernatant was transferred into round-bottom 96-well polypropylene plates for detection of Aβ42. 50 μl assay buffer (50 mM Tris/Cl, pH 7.4, 60 mM NaCl, 0.5% BSA, 1% TWEEN 20) was added to the wells followed by the addition of 100 μl of detection antibody (ruthenylated Aβ42-specific antibody BAP15 0.0625 μg/mL in assay buffer). 50 μl of a premix of capture antibody (biotinylated 6E10 antibody, 1 μg/mL) and Steptavidin-coated magnetic beads (Dynal M-280, 0.125 mg/mL) were preincubated for 1 hr at room temperature before adding the assay plates. Assay plates were incubated on a shaker for 3 hrs at room temperature and finally read in the Bioveris M8 Analyser according to the manufacturer's instructions (Bioveris).
EC50 values for inhibition of Aβ42 secretion were calculated by nonlinear regression fit analysis using XLfit 4.0 software (IDBS).

Structure (SMILES)	melting point	EC50 (γ-secretase)
COC(=O)C1CC2(Cc3cnc(Nc4ccc(-n5cnc(C)c5)c(OC)c4)nc31)OCCO2 (centres unmarked) [Example 55, Methyl 6,6-ethylendioxy-2-[3-methoxy-4-(4-methyl-imidazol-1-yl)-phenylamino]-5,6,7,8-tetrahydro-quinazoline-8-carboxylate]	180 to 182 °C	–
CCOC(=O)C1CCc2cnc(Nc3ccc(-n4cnc(C)c4)c(OC)c3)nc21 (centres unmarked) [Example 63, Ethyl 2-[3-methoxy-4-(4-methyl-imidazol-1-yl)-phenylamino]-6,7-dihydro-5H-cyclopentapyrimidine-7-carboxylate]	150 to 153 °C	–
CCCC1(c2cccc(OC)c2)CCCc2cnc(Nc3ccc(-n4cnc(C)c4)c(OC)c3)nc21 (centres unmarked) [Example 46, [3-Methoxy-4-(4-methyl-imidazol-1-yl)-phenyl]-[8-(3-methoxy-phenyl)-8-propyl-5,6,7,8-tetrahydro-quinazolin-2-yl]-amine]	166 to 168 °C	–
COc1cc(Nc2ncc3c(n2)C(CC#N)(c2ccc(Cl)cc2)CCC3)ccc1-n1cnc(C)c1 (centres unmarked) [Example 52, {8-(4-Chloro-phenyl)-2-[3-methoxy-4-(4-methyl-imidazol-1-yl)-phenylamino]-5,6,7,8-tetrahydro-quinazolin-8-yl}-acetonitrile]	156 to 158 °C	–
COc1cc(Nc2ncc3c(n2)C(C(=O)N2CCCC2)CCC3)ccc1-n1cnc(C)c1 (centres unmarked) [Example 87, {2-[3-Methoxy-4-(4-methyl-imidazol-1-yl)-phenylamino]-5,6,7,8-tetrahydro-quinazolin-8-yl}-pyrrolidin-1-yl-methanone]	94 to 95 °C	–
Cc1cn(-c2ccc(Nc3ncc4c(n3)C(c3cccc(C(F)(F)F)c3)CCC4)cc2F)cn1 (centres unmarked) [Example 57, [3-Fluoro-4-(4-methyl-imidazol-1-yl)-phenyl]-[8-(3-trifluoromethyl-phenyl)-5,6,7,8-tetrahydro-quinazolin-2-yl]-amine]	207 to 209 °C	–
COc1cc(Nc2ncc3c(n2)C(C)(c2ccccc2)CCC3)ccc1-n1cnc(C)c1 (centres unmarked) [Example 45, [3-Methoxy-4-(4-methyl-imidazol-1-yl)-phenyl]-(8-methyl-8-phenyl-5,6,7,8-tetrahydro-quinazolin-2-yl)-amine]	207 to 209 °C	–
COc1cc(Nc2ncc3c(n2)C(c2ccc(Cl)c(Cl)c2)CCC3)ccc1-n1cnc(C)c1 (centres unmarked) [Example 49, [8-(3,4-Dichloro-phenyl)-5,6,7,8-tetrahydro-quinazolin-2-yl]-[3-methoxy-4-(4-methyl-imidazol-1-yl)-phenyl]-amine]	167 to 169 °C	–
COc1cc(Nc2ncc3c(n2)C(c2ccccn2)CCC3)ccc1-n1cnc(C)c1 (centres unmarked) [Example 84, [3-Methoxy-4-(4-methyl-imidazol-1-yl)-phenyl]-(8-pyridin-2-yl-5,6,7,8-tetrahydro-quinazolin-2-yl)-amine]	181 to 183 °C	–
Cc1cn(-c2ccc(Nc3ncc4c(n3)C(C)(c3ccccc3)CCC4)cc2F)cn1 (centres unmarked) [Example 56, [3-Fluoro-4-(4-methyl-imidazol-1-yl)-phenyl]-(8-methyl-8-phenyl-5,6,7,8-tetrahydro-quinazolin-2-yl)-amine]	157 to 158 °C	–
CCOC(=O)C1CCCc2cnc(Nc3ccc(-n4cnc(C)c4)c(F)c3)nc21 (centres unmarked) [Example 59, Ethyl 2-[3-fluoro-4-(4-methyl-imidazol-1-yl)-phenylamino]-5,6,7,8-tetrahydro-quinazoline-8-carboxylate]	142 to 145 °C	–
COc1cc(Nc2nc3c(s2)CCCC3c2ccccc2)ccc1-c1nc(C)no1 (centres unmarked) [Example 89, [3-Methoxy-4-(3-methyl-[1,2,4]oxadiazol-5-yl)-phenyl]-(4-phenyl-4,5,6,7-tetrahydro-benzothiazol-2-yl)-amine]	228 to 231 °C	–
COc1cc(Nc2ncc3c(n2)C(c2nc(C)no2)CCC3)ccc1-n1cnc(C)c1 (centres unmarked) [Example 64, [3-Methoxy-4-(4-methyl-imidazol-1-yl)-phenyl]-[8-(3-methyl-[1,2,4]oxadiazol-5-yl)-5,6,7,8-tetrahydro-quinazolin-2-yl]-amine]	212 to 214 °C	–
COc1cc(Nc2ncc3c(n2)C(c2cc(Cl)ccc2Cl)CCCC3)ccc1-n1cnc(C)c1 (centres unmarked) [Example 62, [9-(2,5-Dichloro-phenyl)-6,7,8,9-tetrahydro-5H-cycloheptapyrimidin-2-yl]-[3-methoxy-4-(4-methyl-imidazol-1-yl)-phenyl]-amine]	218 to 220 °C	–
Cc1cn(-c2ccc(Nc3nc4c(s3)CCCC4(C)c3ccccc3)cc2F)cn1 (centres unmarked) [Example 31, [3-Fluoro-4-(4-methyl-imidazol-1-yl)-phenyl]-(4-methyl-4-phenyl-4,5,6,7-tetrahydro-benzothiazol-2-yl)-amine]	160 to 164 °C	–
COc1cc(Nc2ncc3c(n2)C(N2CCOCC2)CCC3)ccc1-n1cnc(C)c1 (centres unmarked) [Example 81, [3-Methoxy-4-(4-methyl-imidazol-1-yl)-phenyl]-(8-morpholin-4-yl-5,6,7,8-tetrahydro-quinazolin-2-yl)-amine]	214 to 216 °C	–
COc1cc(Nc2ncc3c(n2)C(c2ccc(Cl)cc2Cl)CCC3)ccc1-n1cnc(C)c1 (centres unmarked) [Example 48, [8-(2,4-Dichloro-phenyl)-5,6,7,8-tetrahydro-quinazolin-2-yl]-[3-methoxy-4-(4-methyl-imidazol-1-yl)-phenyl]-amine]	256 to 258 °C	–
Cc1cn(-c2ccc(Nc3nc4c(s3)CCCC4c3ccc(OC(F)(F)F)cc3)cc2F)cn1 (centres unmarked) [Example 34, [3-Fluoro-4-(4-methyl-imidazol-1-yl)-phenyl]-[4-(4-trifluoromethoxy-phenyl)-4,5,6,7-tetrahydro-benzothiazol-2-yl]-amine]	148 to 151 °C	–
CCOC(=O)C1CCCc2cnc(Nc3ccc(-n4cnc(C)c4)c(OC)c3)nc21 (centres unmarked) [Example 54, Ethyl 2-[3-methoxy-4-(4-methyl-imidazol-1-yl)-phenylamino]-5,6,7,8-tetrahydro-quinazoline-8-carboxylate]	162 to 164 °C	–
COc1cc(Nc2ncc3c(n2)C(c2ccc(F)cc2)CCC3)ccc1-n1cnc(C)c1 (centres unmarked) [Example 51, [8-(4-Fluoro-phenyl)-5,6,7,8-tetrahydro-quinazolin-2-yl]-[3-methoxy-4-(4-methyl-imidazol-1-yl)-phenyl]-amine]	191 to 193 °C	–
COc1cc(Nc2ncc3c(n2)C(C(=O)N(C)C)CCC3)ccc1-n1cnc(C)c1 (centres unmarked) [Example 86, 2-[3-Methoxy-4-(4-methyl-imidazol-1-yl)-phenylamino]-5,6,7,8-tetrahydro-quinazoline-8-carboxylic acid dimethylamide]	150 to 152 °C	–
Cc1cn(-c2ccc(Nc3ncc4c(n3)C(c3cc(C(F)(F)F)cc(C(F)(F)F)c3)CCC4)cc2F)cn1 (centres unmarked) [Example 61, [8-(3,5-Bis-trifluoromethyl-phenyl)-5,6,7,8-tetrahydro-quinazolin-2-yl]-[3-fluoro-4-(4-methyl-imidazol-1-yl)-phenyl]-amine]	200 to 202 °C	–
COc1cc(Nc2ncc3c(n2)C(c2cccc(C(F)(F)F)c2)CCC3)ccc1-n1cnc(C)c1 (centres unmarked) [Example 47, [3-Methoxy-4-(4-methyl-imidazol-1-yl)-phenyl]-[8-(3-trifluoromethyl-phenyl)-5,6,7,8-tetrahydro-quinazolin-2-yl]-amine]	213 to 215 °C	–
COc1cc(Nc2nc(O)c3c(n2)C(c2ccccc2)CN(C)C3)ccc1-n1cnc(C)c1 (centres unmarked) [Example 53, 2-[3-Methoxy-4-(4-methyl-imidazol-1-yl)-phenylamino]-6-methyl-8-phenyl-5,6,7,8-tetrahydro-pyrido[4,3-d]pyrimidin-4-ol]	152 to 155 °C	–
COc1cc(Nc2ncc3c(n2)C(c2ccccc2)CN(C(C)C)C3)ccc1-n1cnc(C)c1 (centres unmarked) [Example 80, (6-Isopropyl-8-phenyl-5,6,7,8-tetrahydro-pyrido[4,3-#d!]pyrimidin-2-yl)-[3-methoxy-4-(4-methyl-imidazol-1-yl)-phenyl]-amine]	–	0.45 µM
Cc1cn(-c2ccc(Nc3nc4c(s3)CCCC4c3ccccc3)cc2F)cn1 (centres unmarked) [Example 5, [3-Fluoro-4-(4-methyl-imidazol-1-yl)-phenyl]-(4-phenyl-4,5,6,7-tetrahydro-benzothiazol-2-yl)-amine]	–	0.05 µM
COc1cc(Nc2nc3c(s2)CCCC3c2cc(Cl)cc(Cl)c2)ccc1-n1cnc(C)c1 (centres unmarked) [Example 27, [4-(3,5-Dichloro-phenyl)-4,5,6,7-tetrahydro-benzothiazol-2-yl]-[3-methoxy-4-(4-methyl-imidazol-1-yl)-phenyl]-amine]	–	0.07 µM
Cc1cn(-c2ccc(Nc3ncc4c(n3)C(c3ccccc3)CCC4)cc2F)cn1 (centres unmarked) [Example 38, [3-Fluoro-4-(4-methyl-imidazol-1-yl)-phenyl]-(8-phenyl-5,6,7,8-tetrahydro-quinazolin-2-yl)-amine]	–	0.13 µM
COc1cc(Nc2nc3c(s2)CCCC3c2ccc(C)c(F)c2)ccc1-n1cnc(C)c1 (centres unmarked) [Example 15]	–	0.09 µM
